Test results published in patent US8192962B2, “Processes for detecting toxic substances” (Daikin Industries, Ltd., priority 2001, dated 2012).

System: Stress protein genes
Assay: DNA chip mRNA expression in yeast, stress protein genes (Table 6)
Format: cell-based, Saccharomyces cerevisiae S288C
Outline: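 S. cerevisiae S288C grown at 25° C. in YPD to log phase, then exposed 2 h to a toxicant at a growth-inhibiting, non-lethal concentration; untreated cells as control. Poly(A) mRNA reverse-transcribed with Cy3-dUTP or Cy5-dUTP, hybridized >12 h at 65° C. to whole-genome yeast DNA chip; value = fluorescence ratio treated/untreated.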

## N#Cc1c(Cl)c(Cl)c(Cl)c(C#N)c1Cl [(9), 2,4,5,6-tetrachloro-1,3-benzenedicarbonitrile]
Yeast gene YAL005C
  The level of expressed mRNA in the presence of chemical substance/The level of expressed mRNA in the absence of chemical substance: 3.9
Yeast gene YAL015C
  The level of expressed mRNA in the presence of chemical substance/The level of expressed mRNA in the absence of chemical substance: 4.0
Yeast gene YBL075C
  The level of expressed mRNA in the presence of chemical substance/The level of expressed mRNA in the absence of chemical substance: 60.3
Yeast gene YBL093C
  The level of expressed mRNA in the presence of chemical substance/The level of expressed mRNA in the absence of chemical substance: 0.7
Yeast gene YBR044C
  The level of expressed mRNA in the presence of chemical substance/The level of expressed mRNA in the absence of chemical substance: 0.8
Yeast gene YBR054W
  The level of expressed mRNA in the presence of chemical substance/The level of expressed mRNA in the absence of chemical substance: 0.4
Yeast gene YBR067C
  The level of expressed mRNA in the presence of chemical substance/The level of expressed mRNA in the absence of chemical substance: 1.7
Yeast gene YBR072W
  The level of expressed mRNA in the presence of chemical substance/The level of expressed mRNA in the absence of chemical substance: 29.4
Yeast gene YBR126C
  The level of expressed mRNA in the presence of chemical substance/The level of expressed mRNA in the absence of chemical substance: 1.7
Yeast gene YBR169C
  The level of expressed mRNA in the presence of chemical substance/The level of expressed mRNA in the absence of chemical substance: 7.0
Yeast gene YCL035C
  The level of expressed mRNA in the presence of chemical substance/The level of expressed mRNA in the absence of chemical substance: 1.9
Yeast gene YCR021C
  The level of expressed mRNA in the presence of chemical substance/The level of expressed mRNA in the absence of chemical substance: 2.2
Yeast gene YCR060W
  The level of expressed mRNA in the presence of chemical substance/The level of expressed mRNA in the absence of chemical substance: 0.7
Yeast gene YCR083W
  The level of expressed mRNA in the presence of chemical substance/The level of expressed mRNA in the absence of chemical substance: 1.8
Yeast gene YDL022W
  The level of expressed mRNA in the presence of chemical substance/The level of expressed mRNA in the absence of chemical substance: 1.2
Yeast gene YDL025C
  The level of expressed mRNA in the presence of chemical substance/The level of expressed mRNA in the absence of chemical substance: 3.6
Yeast gene YDR033W
  The level of expressed mRNA in the presence of chemical substance/The level of expressed mRNA in the absence of chemical substance: 0.3
Yeast gene YDR077W
  The level of expressed mRNA in the presence of chemical substance/The level of expressed mRNA in the absence of chemical substance: 0.7
Yeast gene YDR098C
  The level of expressed mRNA in the presence of chemical substance/The level of expressed mRNA in the absence of chemical substance: 3.7
Yeast gene YDR155C
  The level of expressed mRNA in the presence of chemical substance/The level of expressed mRNA in the absence of chemical substance: 1.3
Yeast gene YDR258C
  The level of expressed mRNA in the presence of chemical substance/The level of expressed mRNA in the absence of chemical substance: 4.9
Yeast gene YDR293C
  The level of expressed mRNA in the presence of chemical substance/The level of expressed mRNA in the absence of chemical substance: 1.2
Yeast gene YDR436W
  The level of expressed mRNA in the presence of chemical substance/The level of expressed mRNA in the absence of chemical substance: 3.5
Yeast gene YDR513W
  The level of expressed mRNA in the presence of chemical substance/The level of expressed mRNA in the absence of chemical substance: 4.6
Yeast gene YDR519W
  The level of expressed mRNA in the presence of chemical substance/The level of expressed mRNA in the absence of chemical substance: 0.5
Yeast gene YEL030W
  The level of expressed mRNA in the presence of chemical substance/The level of expressed mRNA in the absence of chemical substance: 2.3
Yeast gene YEL039C
  The level of expressed mRNA in the presence of chemical substance/The level of expressed mRNA in the absence of chemical substance: 1.2
Yeast gene YER042W
  The level of expressed mRNA in the presence of chemical substance/The level of expressed mRNA in the absence of chemical substance: 6.8
Yeast gene YER057C
  The level of expressed mRNA in the presence of chemical substance/The level of expressed mRNA in the absence of chemical substance: 0.6
Yeast gene YER103W
  The level of expressed mRNA in the presence of chemical substance/The level of expressed mRNA in the absence of chemical substance: 20.3
Yeast gene YER125W
  The level of expressed mRNA in the presence of chemical substance/The level of expressed mRNA in the absence of chemical substance: 0.6
Yeast gene YFL014W
  The level of expressed mRNA in the presence of chemical substance/The level of expressed mRNA in the absence of chemical substance: 13.1
Yeast gene YFL016C
  The level of expressed mRNA in the presence of chemical substance/The level of expressed mRNA in the absence of chemical substance: 6.4
Yeast gene YFL020C
  The level of expressed mRNA in the presence of chemical substance/The level of expressed mRNA in the absence of chemical substance: 1.3
Yeast gene YFR052W
  The level of expressed mRNA in the presence of chemical substance/The level of expressed mRNA in the absence of chemical substance: 3.7
Yeast gene YGL073W
  The level of expressed mRNA in the presence of chemical substance/The level of expressed mRNA in the absence of chemical substance: 1.9
Yeast gene YGL115W
  The level of expressed mRNA in the presence of chemical substance/The level of expressed mRNA in the absence of chemical substance: 1.2
Yeast gene YGL181W
  The level of expressed mRNA in the presence of chemical substance/The level of expressed mRNA in the absence of chemical substance: 2.7
Yeast gene YGR088W
  The level of expressed mRNA in the presence of chemical substance/The level of expressed mRNA in the absence of chemical substance: 1.5
Yeast gene YHL028W
  The level of expressed mRNA in the presence of chemical substance/The level of expressed mRNA in the absence of chemical substance: 0.2
Yeast gene YHL046C
  The level of expressed mRNA in the presence of chemical substance/The level of expressed mRNA in the absence of chemical substance: 1.0
Yeast gene YHR030C
  The level of expressed mRNA in the presence of chemical substance/The level of expressed mRNA in the absence of chemical substance: 0.6
Yeast gene YHR057C
  The level of expressed mRNA in the presence of chemical substance/The level of expressed mRNA in the absence of chemical substance: 2.6
Yeast gene YHR104W
  The level of expressed mRNA in the presence of chemical substance/The level of expressed mRNA in the absence of chemical substance: 4.8
Yeast gene YIL011W
  The level of expressed mRNA in the presence of chemical substance/The level of expressed mRNA in the absence of chemical substance: 0.0
Yeast gene YIL033C
  The level of expressed mRNA in the presence of chemical substance/The level of expressed mRNA in the absence of chemical substance: 2.4
Yeast gene YIR037W
  The level of expressed mRNA in the presence of chemical substance/The level of expressed mRNA in the absence of chemical substance: 6.2
Yeast gene YIR038C
  The level of expressed mRNA in the presence of chemical substance/The level of expressed mRNA in the absence of chemical substance: 4.6
Yeast gene YJL128C
  The level of expressed mRNA in the presence of chemical substance/The level of expressed mRNA in the absence of chemical substance: 2.0
Yeast gene YJL158C
  The level of expressed mRNA in the presence of chemical substance/The level of expressed mRNA in the absence of chemical substance: 0.2
Yeast gene YJL159W
  The level of expressed mRNA in the presence of chemical substance/The level of expressed mRNA in the absence of chemical substance: 0.5
Yeast gene YJL165C
  The level of expressed mRNA in the presence of chemical substance/The level of expressed mRNA in the absence of chemical substance: 2.8
Yeast gene YJR045C
  The level of expressed mRNA in the presence of chemical substance/The level of expressed mRNA in the absence of chemical substance: 3.2
Yeast gene YJR090C
  The level of expressed mRNA in the presence of chemical substance/The level of expressed mRNA in the absence of chemical substance: 1.9
Yeast gene YKL161C
  The level of expressed mRNA in the presence of chemical substance/The level of expressed mRNA in the absence of chemical substance: 1.4
Yeast gene YKL163W
  The level of expressed mRNA in the presence of chemical substance/The level of expressed mRNA in the absence of chemical substance: 0.7
Yeast gene YKL164C
  The level of expressed mRNA in the presence of chemical substance/The level of expressed mRNA in the absence of chemical substance: 0.4
Yeast gene YKL210W
  The level of expressed mRNA in the presence of chemical substance/The level of expressed mRNA in the absence of chemical substance: 3.5
Yeast gene YKR053C
  The level of expressed mRNA in the presence of chemical substance/The level of expressed mRNA in the absence of chemical substance: 0.8
Yeast gene YLL024C
  The level of expressed mRNA in the presence of chemical substance/The level of expressed mRNA in the absence of chemical substance: 2.8
Yeast gene YLL026W
  The level of expressed mRNA in the presence of chemical substance/The level of expressed mRNA in the absence of chemical substance: 11.4
Yeast gene YLL039C
  The level of expressed mRNA in the presence of chemical substance/The level of expressed mRNA in the absence of chemical substance: 3.4
Yeast gene YLL060C
  The level of expressed mRNA in the presence of chemical substance/The level of expressed mRNA in the absence of chemical substance: 13.0
Yeast gene YLR006C
  The level of expressed mRNA in the presence of chemical substance/The level of expressed mRNA in the absence of chemical substance: 1.1
Yeast gene YLR109W
  The level of expressed mRNA in the presence of chemical substance/The level of expressed mRNA in the absence of chemical substance: 2.4
Yeast gene YLR259C
  The level of expressed mRNA in the presence of chemical substance/The level of expressed mRNA in the absence of chemical substance: 1.8
Yeast gene YML007W
  The level of expressed mRNA in the presence of chemical substance/The level of expressed mRNA in the absence of chemical substance: 2.1
Yeast gene YML070W
  The level of expressed mRNA in the presence of chemical substance/The level of expressed mRNA in the absence of chemical substance: 4.5
Yeast gene YMR021C
  The level of expressed mRNA in the presence of chemical substance/The level of expressed mRNA in the absence of chemical substance: 0.6
Yeast gene YMR173W
  The level of expressed mRNA in the presence of chemical substance/The level of expressed mRNA in the absence of chemical substance: 2.7
Yeast gene YMR186W
  The level of expressed mRNA in the presence of chemical substance/The level of expressed mRNA in the absence of chemical substance: 2.6
Yeast gene YNL064C
  The level of expressed mRNA in the presence of chemical substance/The level of expressed mRNA in the absence of chemical substance: 2.4
Yeast gene YNL160W
  The level of expressed mRNA in the presence of chemical substance/The level of expressed mRNA in the absence of chemical substance: 3.5
Yeast gene YNL241C
  The level of expressed mRNA in the presence of chemical substance/The level of expressed mRNA in the absence of chemical substance: 3.4
Yeast gene YNR076W
  The level of expressed mRNA in the presence of chemical substance/The level of expressed mRNA in the absence of chemical substance: 1.3
Yeast gene YOL064C
  The level of expressed mRNA in the presence of chemical substance/The level of expressed mRNA in the absence of chemical substance: 8.7
Yeast gene YOL161C
  The level of expressed mRNA in the presence of chemical substance/The level of expressed mRNA in the absence of chemical substance: 0.7
Yeast gene YOR008C
  The level of expressed mRNA in the presence of chemical substance/The level of expressed mRNA in the absence of chemical substance: 1.9
Yeast gene YOR009W
  The level of expressed mRNA in the presence of chemical substance/The level of expressed mRNA in the absence of chemical substance: 0.4
Yeast gene YOR010C
  The level of expressed mRNA in the presence of chemical substance/The level of expressed mRNA in the absence of chemical substance: 0.6
Yeast gene YOR027W
  The level of expressed mRNA in the presence of chemical substance/The level of expressed mRNA in the absence of chemical substance: 3.5
Yeast gene YOR208W
  The level of expressed mRNA in the presence of chemical substance/The level of expressed mRNA in the absence of chemical substance: 1.5
Yeast gene YPL059W
  The level of expressed mRNA in the presence of chemical substance/The level of expressed mRNA in the absence of chemical substance: 2.0
Yeast gene YPL106C
  The level of expressed mRNA in the presence of chemical substance/The level of expressed mRNA in the absence of chemical substance: 4.9
Yeast gene YPL140C
  The level of expressed mRNA in the presence of chemical substance/The level of expressed mRNA in the absence of chemical substance: 0.9
Yeast gene YPL194W
  The level of expressed mRNA in the presence of chemical substance/The level of expressed mRNA in the absence of chemical substance: 9.6
Yeast gene YPL223C
  The level of expressed mRNA in the presence of chemical substance/The level of expressed mRNA in the absence of chemical substance: 29.4
Yeast gene YPL240C
  The level of expressed mRNA in the presence of chemical substance/The level of expressed mRNA in the absence of chemical substance: 3.5
Yeast gene YPR005C
  The level of expressed mRNA in the presence of chemical substance/The level of expressed mRNA in the absence of chemical substance: 2.8
Yeast gene YPR026W
  The level of expressed mRNA in the presence of chemical substance/The level of expressed mRNA in the absence of chemical substance: 0.9
